Numbers after ± are expanded uncertainties.
Columns and labels:
[1] = Crystal; DTA
[2] = Molar enthalpy of transition or fusion; settings: Crystal; DSC

Normal melting temperature [1]: 172.69 ± 1.1 °C
Molar enthalpy of transition or fusion [2]: 6.67 ± 0.191 kcal/mol
Structure (SMILES): NNC(=O)c1ccncc1 [isonicotinic acid hydrazide]

From the NIST ThermoML archive (doi:10.1016/j.fluid.2012.01.022)
